Experimental data taken from paper PMC6154605, “Multi-Anti-Parasitic Activity of Arylidene Ketones and Thiazolidene Hydrazines against Trypanosoma cruzi and Leishmania spp” (Molecules : A Journal of Synthetic Chemistry and Natural …, 2017).
Where two headings read alike, the source gives them in different places.

How the values were obtained:
[1] = test system: J774.1 murine macrophages; assay: Nonspecific cytotoxicity on macrophages, MTT; format: cell-based; conditions: J774.1, 48 h, read-out: IC50 ± SD Murine Macrophages
Procedure: (§1) To establish the selectivity of the compounds against the parasites, nonspecific cytotoxicity against mammalian cells, using J774.1 murine macrophages and fibroblast NCTC929, was studied for the most relevant derivatives. The selectivity indexes were calculated as the ratio between cytotoxicity for mammalian cells and the anti-parasitic activity (Table 2).
J774.1 murine macrophage cells (ATCC, USA) were grown in DMEM culture milieu containing 4 mM L-glutamine and supplemented with 10% FCS. The cells were seeded in a 96-well plate (5.00 × 10^4 cells in 200 µL culture medium) and incubated at 37 °C in a 5% CO2 atmosphere for 48 h, to allow cell adhesion prior to drug testing. Afterwards, cells were exposed for 48 h to the compounds (25–400 μM) or the vehicle for control (0.4% DMSO), and additional controls (cells in medium) were used in each test. Cell viability was then assessed by measuring the mitochondria-dependent reduction of MTT (3-(4,5-dimethylthiazol-2-yl)-2,5-diphenyltetrazolium bromide) to formazan. For this purpose, MTT in sterile PBS (0.2% glucose), pH 7.4, was added to the macrophages to achieve a final concentration of 0.1 mg/mL, and the cells were incubated at 37 °C for 3 h. After removing the medium, formazan crystals were dissolved in 180 μL of DMSO and 20 μL of MTT buffer (0.1 M glycine, 0.1 M NaCl, 0.5 mM EDTA, pH 10.5), and the absorbance at 560 nm was measured. The IC50 was defined as the drug concentration at which 50% of the cells were viable, relative to the control (no drug added), and was determined by analysis using OriginLab8.5® sigmoidal regression (% of viable cells vs. the logarithm of the compound concentration). Tests were performed in triplicate.

NCTC929 fibroblasts = assay: Nonspecific cytotoxicity on fibroblasts, resazurin; format: cell-based; conditions: NCTC-929, 24 h; read-out: IC50 ± SD Fibroblast NCTC929
Procedure: as §1
NCTC-Clone 929 were grown in minimal essential medium (Sigma) supplemented with 10% heat-inactivated FBS, penicillin G (100 U/mL) and streptomycin (100 µg/mL). Cell cultures were maintained at 37 °C in a humidified 5% CO2 atmosphere. The procedure for cell viability measurement was evaluated with resazurin by a colorimetric method. The cells were plated in 96 microtiter plates at 3.00 × 10^4 cells/well in 100 µL growth medium. The cells were grown overnight at 37 °C, 5% CO2. Thereafter, the medium was removed, and the compounds were added to 200 µL of medium for 24 h. After incubation, 20 µL of a 2 mM resazurin solution were added to each well. The plates were incubated for 3 h to allow optimal oxidation-reduction. The reduction of resazurin was determined by dual wavelength absorbance measurement at 490 and 595 nm. The background was subtracted. Each concentration was assayed three times. Medium and drug controls were used in each test as blanks.

[2] = test system: T. cruzi epimastigotes, Tulahuen 2 strain (genotype TcVI); assay: In vitro anti-T. cruzi activity, growth inhibition of epimastigotes; format: cell-based, Trypanosoma cruzi; conditions: for IC50: Trypanosoma cruzi, TULAHUEN; for SI J774.1/ T. cruzi: ratio IC50 mammalian cell / IC50 parasite (epimastigotes); for Trypanocidal activity on T. cruzi in words: molecular stripping, epimastigotes
Procedure: For the in vitro anti-T. cruzi activity, we used epimastigotes of the Tulahuen 2 strain (genotype TcVI) grown in an axenic milieu (BHI-Tryptose). Cells from a 5–7-day-old culture were inoculated in fresh culture milieu to give an initial concentration of 1.00 × 10^6 cells/mL. The absorbance at 600 nm of the cells in culture was measured every day. At Day 5, the milieu was inoculated with different quantities of the compounds from a stock solution in DMSO (DMSO concentration in the culture milieu never exceeded 0.4%). The control was made in the presence of 0.4% DMSO and in the absence of compounds. Each concentration of compound was evaluated in duplicate. At Day 5, the absorbance of the culture was measured and related to the control. […] Each antiproliferative experiment was done in duplicate, and each concentration was tested in triplicate.

[3] = test system: L. infantum promastigotes; assay: Leishmanicidal activity on promastigotes, resazurin; format: cell-based, Leishmania infantum; conditions: for IC50: 48 h, read-out: IC50 ± SD Promastigotes L. infantum; for SI NCTC/ L. infantum: ratio IC50 mammalian cell / IC50 parasite (promastigotes)
Source text: (§2) We initially selected compounds previously reported to have anti-T. cruzi activity from our chemical library to evaluate their leishmanicidal activity. […]. To evaluate their activity in Leishmania spp., we performed a phenotypic screening using the promastigote form of L. infantum (MHOM/FR/91/LEM-2259) and L. braziliensis ([…]) (Table 1A for the thiazolidenehydrazine derivate and Table 1B for the arylideneketones family).
(§3) A culture of L. braziliensis (MHOM/BR/75/M2904) and L. infantum (MHOM/FR/91/LEM2259V) was obtained from the Facultad de Farmacia (Universidad Complutense, Madrid, Spain). The maintenance of the strains, the form of cultivation and the isolation of the shape of the promastigote were performed following the procedures described by Roldos et al.. The promastigotes were grown at 22 °C in Schneider’s Drosophila medium supplemented with 20% FBS. The assay was performed using a modification of a previous method. Promastigotes (2 × 10^6 parasites/well) were cultivated in 96-well plastic plates. Compounds were dissolved in dimethylsulfoxide (DMSO). Different dilutions of the compounds with a final volume up to 200 µL were added. After 48 h at 26 °C, 20 µL of a 2 mM resazurin solution were added, and the oxidation-reduction was quantified at 570 and 600 nm. The solution of resazurin was prepared at 2.5 mM in phosphate buffered solution (PBS), pH 7.4, and filtered through 0.22-µm membranes prior to use. All tests were carried out in triplicate. Resazurin sodium salt was obtained from Sigma-Aldrich (St. Louis, MO, USA) and stored at 4 °C protected from light. The efficacy of each compound was estimated by calculating the IC50 values. Each antiproliferative experiment was done in duplicate, and each concentration was tested in triplicate.

[4] = test system: L. braziliensis promastigotes; assay: as above; format: cell-based, Leishmania braziliensis; conditions: for IC50: 48 h, read-out: IC50 ± SD Promastigotes L. braziliensis; for SI NCTC/ L. braziliensis: ratio IC50 mammalian cell / IC50 parasite (promastigotes)
Source text: as §2, §3

zebrafish embryos = assay: Zebrafish embryo toxicity test (LD50)
Procedure: […] Only embryos that were clearly undamaged after 60 min of observation were kept and subsequently used. Dechorionated embryos were further manipulated using flame-rounded tip glass Pasteur pipettes. […] In all cases, the embryos were incubated in system water with 1% DMSO (negative control) and the compound at different doses between 8 and 96 hpf. The treatment solution was changed daily. […] At selected time points, namely 24, 48, 72 and 96 hpf, embryotoxicity (= mortality) and morphological characteristics of the embryos were evaluated using a Nikon SMZ800 stereomicroscope. The embryos were evaluated for the presence and morphological development (as appropriate) of somites, tail detachment, eyes, heart beat and blood circulation. All individuals were evaluated at all time points.

[5] = Figure 4, molecular stripping of HIT1, read-out: Effect of structural change on trypanocidal activity (emoticon code)
[6] = Tulahuen 2 strain, read-out: IC50 ± SD Epimastigotes T. cruzi

| Molecule | melting point | IC50 [2, 6] [µM] | IC50 ([1]; Mus musculus) [µM] | IC50 (NCTC929 fibroblasts) [µM] | IC50 [2, 5] [µM] | SI J774.1/ T. cruzi [2] | IC50 ([3]; Leishmania infantum) [µM] | SI NCTC/ L. infantum [3] | IC50 ([4]; Leishmania braziliensis) [µM] | SI NCTC/ L. braziliensis [4] | IC50 [1] [µM] | IC50 [3] [µM] | IC50 [4] [µM] | Trypanocidal activity on T. cruzi in words [2] | LD50 without chorion (zebrafish embryos; dechorionated zebrafish embryos, 72 h incubation) [µM] | LD50 with chorion (zebrafish embryos; zebrafish embryos with chorion) [µM] |
| --- | --- | --- | --- | --- | --- | --- | --- | --- | --- | --- | --- | --- | --- | --- | --- | --- |
| Glucantime [reference compound] |  |  |  |  |  |  |  | 0.5 |  | 1 | 15 ± 1 | 26 ± 9 | 18 ± 2 |  |  |  |
| CCCCCCCCCCCCCCCCOP(=O)([O-])OCC[N+](C)(C)C [Miltefosine, reference compound] |  | 8 ± 1 | 50 ± 7 |  |  | 6 | 0.9 ± 0.2 | 56 | 0.9 ± 0.2 |  |  |  |  |  |  |  |
| O=C(Cn1ccnc1[N+](=O)[O-])NCc1ccccc1 [Benznidazole, reference compound] |  | 7 ± 1 | 400 ± 4 |  |  | 57 |  |  |  |  |  |  |  |  | > 1000 | > 1000 |
| C=CCn1c(C(=O)CN2CCN(CC=Cc3ccccc3)CC2)cs/c1=N/N=C\C=C\c1ccco1 [GATk6, 1-((Z)-3-allyl-2-((E)-((E)-3-(furan-2-yl)allylidene)hydrazono)-2,3-dihydrothiazol-4-yl)-2-(4-cinnamylpiperazin-1-yl)ethanone] | 140 to 142 °C | 1.2 ± 0.3 |  |  | < 5 |  | > 25 |  | > 25 |  |  |  |  |  |  |  |
| C=CCn1c(-c2ccc(Cl)cc2)cs\c1=N/N=C/C=C/c1ccc(C)o1 [GAT0113A] | 220 °C (dec.) | 3 ± 0.5 | 66 ± 7 | 319 ± 16 |  | 22 | 8 ± 2 | 40 | 10 ± 1 | 32 |  |  |  | equipotent to the parent compound |  |  |
| Clc1ccc(-c2csc(N/N=C/C=C/c3ccco3)n2)cc1 [GAT2212B] | 212 °C (dec.) | 1.2 ± 0.3 |  |  |  |  | 25 |  | > 25 |  |  |  |  |  |  |  |

More lines, main results first:

| melting point | IC50 [2, 6] [µM] | Molecule | IC50 ([1]; Mus musculus) [µM] | IC50 (NCTC929 fibroblasts) [µM] | IC50 [2, 5] [µM] | SI J774.1/ T. cruzi [2] | IC50 ([3]; Leishmania infantum) [µM] | SI NCTC/ L. infantum [3] | IC50 ([4]; Leishmania braziliensis) [µM] | SI NCTC/ L. braziliensis [4] | IC50 [1] [µM] | IC50 [3] [µM] | IC50 [4] [µM] | Trypanocidal activity on T. cruzi in words [2] | LD50 without chorion (zebrafish embryos; dechorionated zebrafish embryos, 72 h incubation) [µM] | LD50 with chorion (zebrafish embryos; zebrafish embryos with chorion) [µM] |
| --- | --- | --- | --- | --- | --- | --- | --- | --- | --- | --- | --- | --- | --- | --- | --- | --- |
| 148 to 150 °C | 1.6 ± 0.3 | Cc1ccc(/C=C/C=C/C(/C=C/C=C/c2ccc(C)o2)=NN2CCN(CC=Cc3ccccc3)CC2)o1 [GAT1113, N-((1E,3E,6E,8E)-1,9-bis(5-methylfuran-2-yl)nona-1,3,6,8-tetraen-5-ylidene)-4-cinnamylpiperazin-1-amine] | 45 ± 5 | 165 ± 5 | < 5 | 28 | 14 ± 2 | 12 | 16 ± 4 | 10 |  |  |  |  |  |  |
|  | > 25 | C(=Cc1ccccc1)CN1CCN(/N=C/C=C/c2ccco2)CC1 [GAT0913b, (E)-4-cinnamyl-N-((E)-3-(furan-2-yl)allylidene)piperazin-1-amine] | 25 ± 3 | 160 ± 7 | > 25 | 1 | 21 ± 2 | 8 | 18 ± 5 | 9 |  |  |  | the activity was lost |  |  |
| 228 °C (dec.) | 0.09 ± 0.02 | C=CCn1c(-c2ccc(Cl)cc2)cs\c1=N/N=C/C(C)=C/c1ccco1 [GAT0513] | 55 ± 5 | 1440 ± 30 |  | 611 | 58 ± 12 | 25 | 33 ± 11 | 44 |  |  |  | active against T. cruzi |  |  |
